Where “and” joins values, the source holds several entries; their conditions need not be identical. Equal values may be shown once.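 Five compound concentrations were applied to cells in 96-well plates for 48 hours; endpoints were derived by simple linear interpolation of the resulting dose-response curve. Abbreviation: GI50, concentration required for 50% inhibition of growth. TGI marks complete inhibition of growth.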
How the values were obtained:
Test in all cases: inhibition of tumour cell growth, NCI panel, 48 h
[1] = tested on: HOP-62 NSCLC
[2] = tested on: SK-MEL-2 melanoma
[3] = tested on: NCI-H460 lung
[4] = tested on: ACHN renal
[5] = tested on: UACC-257 melanoma
[6] = tested on: IGROV1 ovarian
[7] = tested on: OVCAR-5 ovarian
[8] = tested on: TK-10 renal
[9] = tested on: LOX IMVI melanoma
[10] = tested on: K-562 leukemia
[11] = tested on: LXFL 529 NSCLC
[12] = tested on: EKVX NSCLC
[13] = tested on: DU-145 prostate
[14] = tested on: RXF 393 renal
[15] = tested on: XF 498 CNS
[16] = tested on: NCI-H226 lung
[17] = tested on: HOP-92 NSCLC
[18] = tested on: RXF-631 renal
[19] = tested on: KM20L2 colon
[20] = tested on: HS 578T breast
[21] = tested on: SF-539 CNS
[22] = tested on: SK-OV-3 ovarian
[23] = tested on: BT-549 breast
[24] = tested on: NCI-H23 lung
[25] = tested on: M19-MEL melanoma
[26] = tested on: SF-268 CNS
[27] = tested on: NCI/ADR-RES ovarian
[28] = tested on: SN12C renal
[29] = tested on: T-47D breast
[30] = tested on: UO-31 renal
[31] = tested on: SK-MEL-5 melanoma
[32] = tested on: COLO 205 colon
[33] = tested on: MALME-3M melanoma
[34] = tested on: U251 CNS
[35] = tested on: HCC-2998 colon
[36] = tested on: HOP-18 NSCLC
[37] = tested on: A549 NSCLC
[38] = tested on: CAKI-1 renal
[39] = tested on: HCT-15 colon
[40] = tested on: CCRF-CEM leukemia
[41] = tested on: SNB-78 CNS
[42] = tested on: DMS 114 small cell lung
[43] = tested on: MDA-MB-435
[44] = tested on: SNB-19 CNS
[45] = tested on: MDA-MB-231 breast
[46] = tested on: KM12 colon
[47] = tested on: HT29 colon
[48] = tested on: M14 melanoma
[49] = tested on: OVCAR-8 ovarian
[50] = tested on: MOLT-4 leukemia
[51] = tested on: A498 renal
[52] = tested on: SF-295 CNS
[53] = tested on: SR leukemia

Structure (SMILES): CN1C(=O)CC2(C)c3cc(O)ccc3N(C)C12 (configuration not stated)
- TGI [1]: 60.7 µM
- GI50 [2]: > 75 µM
- TGI [2]: > 94.3 µM
- GI50 [3]: 13.9 µM
- TGI [3]: 26 µM and > 82.3 µM
- GI50 [4]: 25.6 µM
- TGI [4]: 75 µM and > 100 µM
- TGI [5]: > 85.9 µM
- TGI [6]: 75 µM and 68.8 µM
- TGI [7]: 59.6 µM
- GI50 [8]: > 75 µM
- TGI [8]: > 100 µM
- GI50 [9]: 14.8 µM
- TGI [9]: 38.9 µM and 32.6 µM
- GI50 [10]: 11.6 µM
- TGI [10]: 31.3 µM and 70.8 µM
- TGI [11]: > 59.2 µM
- GI50 [12]: > 75 µM
- TGI [12]: > 75 µM and 44.2 µM
- GI50 [13]: > 75 µM
- TGI [13]: > 75 µM
- GI50 [14]: 48.4 µM
- TGI [14]: 75 µM and 66.5 µM
- TGI [15]: 33 µM
- GI50 [16]: 19.5 µM
- TGI [16]: 54.4 µM and 71.9 µM
- GI50 [17]: 18.4 µM
- TGI [17]: 57.9 µM and > 95.9 µM
- TGI [18]: > 100 µM
- TGI [19]: > 100 µM
- GI50 [20]: 23.7 µM
- TGI [20]: 69.3 µM and > 90.2 µM
- GI50 [21]: 14.5 µM
- TGI [21]: 26.9 µM and > 76.5 µM
- GI50 [22]: > 75 µM
- TGI [22]: > 100 µM
- GI50 [23]: 30.3 µM
- TGI [23]: 75 µM and 30.8 µM
- GI50 [24]: 25.7 µM
- TGI [24]: 75 µM and 61.9 µM
- TGI [25]: 46.2 µM
- GI50 [26]: 38.6 µM
- TGI [26]: 75 µM and 60.6 µM
- GI50 [27]: 17.2 µM
- TGI [27]: 75 µM and 34.3 µM
- TGI [28]: 29.6 µM and 23.3 µM
- GI50 [29]: > 75 µM
- TGI [29]: > 91.2 µM
- TGI [30]: > 90.9 µM
- GI50 [31]: 54.1 µM
- TGI [31]: 75 µM and 50.5 µM
- GI50 [32]: 24.1 µM
- TGI [32]: 75 µM and 63.1 µM
- GI50 [33]: > 75 µM
- TGI [33]: > 75 µM and 93.5 µM
- GI50 [34]: 14.4 µM
- TGI [34]: 25 µM and 31.2 µM
- GI50 [35]: > 75 µM
- TGI [35]: > 100 µM
- TGI [36]: > 100 µM
- TGI [37]: 75 µM and > 100 µM
- GI50 [38]: 32.4 µM
- TGI [38]: 63.5 µM and > 100 µM
- GI50 [39]: 14.3 µM
- TGI [39]: 25.9 µM and 41.9 µM
- GI50 [40]: 9.66 µM
- TGI [40]: 40.8 µM and 62.7 µM
- TGI [41]: > 100 µM
- TGI [42]: > 100 µM
- GI50 [43]: 9.51 µM
- TGI [43]: 19.7 µM and 28.4 µM
- GI50 [44]: > 75 µM
- TGI [44]: > 75 µM and 68.1 µM
- TGI [45]: 40.6 µM and 34.1 µM
- GI50 [46]: 42.6 µM
- TGI [46]: 75 µM and 42.7 µM
- GI50 [47]: 21.4 µM
- TGI [47]: 64.5 µM and 51 µM
- TGI [48]: 44.6 µM
- TGI [49]: 61.4 µM
- TGI [50]: 44.7 µM and 40.1 µM
- GI50 [51]: > 75 µM
- TGI [51]: > 75 µM and 68.2 µM
- GI50 [52]: 13 µM
- TGI [52]: 23.7 µM and 54.9 µM
- GI50 [53]: 13.9 µM
- TGI [53]: 45.2 µM and 51.5 µM
